Laboratory results: paper PMC2632993, “Conformational changes in α7 acetylcholine receptors underlying allosteric modulation by divalent cations” (BMC Pharmacology, 2009)

Key:
Assay in all cases: MTSEA thiol modification rate (SCAM) from ACh-evoked currents in oocytes
Assay type in all cases: cell-based, chick
[1] = molecular target: α7 AChR M^40C/E^172Q mutant (C^115A/L^247T background) (Gallus gallus, UniProt P22770, C138A/E195Q/L270T/M63C); details: ± standard error
Experimental: (§1) ACh-evoked current amplitudes decreased following brief, repeated exposure to a limiting concentration of MTSEA (5 μM, 15 seconds). To ensure that the modification reactions were complete, all rate measurements included a final prolonged application of ~100-fold higher concentrations of MTSEA (Fig. 3A and 3B, right). Currents measured following this application represent the endpoint of the reaction between MTSEA and receptors. When the same protocol included Ba^2+ pretreatment and co-application with MTSEA (see Methods), the decreases in current amplitudes were slowed but the same endpoint was obtained (Fig. 3B). Normalized current amplitudes were plotted as a function of the cumulative time of exposure to MTSEA, and pseudo first-order rates were extracted from the single-exponential fits (Fig. 3C).
(§2) Figure 3 Barium slows the rate of MTSEA modification at M^37C. Example of experimental paradigm used to assess Ba^2+ effects on modification rates. […] Endpoints of MTSEA modification are determined by prolonged application of 500 μM MTSEA (right). (B) The same protocol, including Ba^2+ pretreatment and co-application with MTSEA. Current traces are truncated in both (A) and (B) between consecutive MTSEA applications; in all cases the currents were allowed to return to baseline prior to the next application of MTSEA ± ACh. (C) Peak current amplitudes from (A) and (B) are normalized and plotted versus total MTSEA exposure time. Data from this single experiment (no error bars) are fitted to a single-exponential decay (solid line) to extract an apparent pseudo first-order rate constant. The pseudo first-order rate constants calculated in this experiment were 0.011 s^-1 and 0.0019 s^-1 for control (A) and +Ba^2+ (B) measurements, respectively. Second-order rate constants are calculated from these values (Figures 4–6; Table 2).
(§3) Oocytes were superfused in normal extracellular solution containing a reduced Ca^2+ concentration (ESLC; 96 mM NaCl, 2 mM KCl, 1 mM MgCl2, 0.1 mM CaCl2, and 10 mM HEPES, pH 7.5). This solution minimized Ca^2+ influx and eliminated Ca^2+-activated chloride currents. Two-electrode voltage clamp was performed with a GeneClamp 500B controlled by pCLAMP8 software (Molecular Devices, Sunnyvale, CA). Electrodes were filled with 3 M KCl contacting Ag-AgCl wires and had resistances of 0.5 to 2.0 MΩ. Currents were recorded at a constant holding potential of -60 mV. Currents were low pass filtered at 50 Hz and sampled at 100 Hz. Agonist dose-response curves were obtained as described previously, and data were fit to the Hill equation using Origin software (Microcal Software, Northampton, MA).
(§4) MTSEA was prepared daily in distilled water and stored on ice. Stock solution was diluted to the appropriate working concentration in ESLC immediately before each application. […] The limiting dose, yielding 20–40% of the maximal MTSEA effect, was identified for each mutant. […] To measure the effect of Ba^2+ on modification rates we pre-applied 10 mM Ba^2+ for 30 seconds prior to co-application of 10 mM Ba^2+ plus MTSEA. This concentration of Ba^2+ is equivalent to an approximate […] for the modulatory effects in both parental and mutant AChRs. Kinetic data were analyzed as described previously; rate data were fit to a single exponential to extract a pseudo-first order rate constant; this was divided by the MTSEA concentration used to determine the second order rate constant for thiol modification.

[2] = molecular target: α7 AChR E^44C mutant (C^115A/L^247T background) (Gallus gallus, UniProt P22770, C138A/E67C/L270T)
Experimental: as §1, §2, §3, §4

[3] = molecular target: α7 AChR N^52C mutant (C^115A/L^247T background) (Gallus gallus, UniProt P22770, C138A/L270T/N75C); details: ± standard error
Experimental: as §1, §2, §3, §4

[4] = molecular target: T1, α7 AChR M^40C mutant (C^115A/L^247T background) (Gallus gallus, UniProt P22770, C138A/L270T/M63C); details: ± standard error
T1 construct: expressed in transfected cells; host or cells: Xenopus laevis oocytes injected with cRNA
Experimental: as §1, §2, §3, §4

[5] = molecular target: α7 AChR N^170C mutant (C^115A/L^247T background) (Gallus gallus, UniProt P22770, C138A/L270T/N193C); details: ± standard error
Experimental: as §1, §2, §3, §4

[6] = molecular target: α7 AChR M^37C mutant (C^115A/L^247T background) (Gallus gallus, UniProt P22770, C138A/L270T/M60C); details: for pseudo first-order rate constant of MTSEA modification: 5 μM MTSEA, single experiment
Experimental: as §1, §2, §3, §4

[7] = molecular target: α7 AChR E^172C mutant (C^115A/L^247T background) (Gallus gallus, UniProt P22770, C138A/E195C/L270T); details: ± standard error
Experimental: as §1, §2, §3, §4

[8] = co-expression with human RIC-3, MTSEA + 10 mM Ba^2+ (30 s pre-application)
[9] = co-expression with human RIC-3, MTSEA + ~EC110 ACh
[10] = co-expression with human RIC-3, MTSEA alone
[11] = MTSEA + 10 mM Ba^2+ (30 s pre-application), ± standard error
[12] = MTSEA + ~EC110 ACh, ± standard error
[13] = MTSEA + 10 mM Ba^2+ (30 s pre-application)

MTSEA modification rate (second-order rate constant), + Ba^2+ [1, 8]: 2.0 ± 0.3 (6) × 10^3, M^-1 S^-1
MTSEA modification rate (second-order rate constant), + ACh [1, 9]: 1.3 ± 0.1 (5) × 10^3, M^-1 S^-1
MTSEA modification rate (second-order rate constant), control [1, 10]: 14 ± 0.5 (5) × 10^3, M^-1 S^-1
MTSEA modification rate (second-order rate constant), + Ba^2+ [2, 11]: 9.3 ± 0.1(8) × 10^3, M^-1 S^-1
MTSEA modification rate (second-order rate constant), + ACh [2, 12]: 0.90 ± 0.05 (4) × 10^3, M^-1 S^-1
MTSEA modification rate (second-order rate constant), control ([2]; MTSEA alone, ± standard error): 23 ± 0.7 (4) × 10^3, M^-1 S^-1
MTSEA modification rate in the presence of Ba^2+ compared to that in the presence of ACh ([2]; higher with Ba^2+): ~ 10 fold
MTSEA modification rate (second-order rate constant), + Ba^2+ [3, 13]: 0.26 ± 0.02 (7) × 10^3, M^-1 S^-1
MTSEA modification rate (second-order rate constant), + ACh ([3]; MTSEA + ~EC110 ACh): 1.4 ± 0.04 (7) × 10^3, M^-1 S^-1
MTSEA modification rate (second-order rate constant), control ([3]; MTSEA alone): 0.40 ± .08 (9) × 10^3, M^-1 S^-1
MTSEA modification rate (second-order rate constant), + Ba^2+ [4, 13]: 2.8 ± 0.05 (7) × 10^3, M^-1 S^-1
MTSEA modification rate (second-order rate constant), + ACh ([4]; MTSEA + ~EC110 ACh): 2.2 ± 0.4 (3) × 10^3, M^-1 S^-1
MTSEA modification rate (second-order rate constant), control ([4]; MTSEA alone): 16 ± 0.2 (13) × 10^3, M^-1 S^-1
MTSEA modification rate (second-order rate constant), + Ba^2+ [5, 8]: 3.7 ± 0.06 (9) × 10^3, M^-1 S^-1
MTSEA modification rate (second-order rate constant), + ACh [5, 9]: 5.7 ± 0.1 (7) × 10^3, M^-1 S^-1
MTSEA modification rate (second-order rate constant), control [5, 10]: 3.3 ± .05 (7) × 10^3, M^-1 S^-1
pseudo first-order rate constant of MTSEA modification ([6]; +Ba^2+): 0.0019 s⁻¹
pseudo first-order rate constant of MTSEA modification ([6]; control): 0.011 s⁻¹
MTSEA modification rate (second-order rate constant), + Ba^2+ [6, 11]: 0.40 ± 0.02 (5) × 10^3, M^-1 S^-1
MTSEA modification rate (second-order rate constant), + ACh [6, 12]: 0.30 ± 0.05 (4) × 10^3, M^-1 S^-1
MTSEA modification rate (second-order rate constant), control ([6]; MTSEA alone, ± standard error): 2.4 ± .03 (10) × 10^3, M^-1 S^-1
MTSEA modification rate (second-order rate constant), + Ba^2+ [7, 8]: 7.3 ± 0.3 (6) × 10^3, M^-1 S^-1
MTSEA modification rate (second-order rate constant), + ACh [7, 9]: 3.5 ± 0.1 (5) × 10^3, M^-1 S^-1
MTSEA modification rate (second-order rate constant), control [7, 10]: 15 ± 0.4 (5) × 10^3, M^-1 S^-1
SMILES: CS(=O)(=O)SCCN [MTSEA, 2-aminoethylmethane thiosulfonate]
